Results from patent EP0390111B1 (MERRELL DOW PHARMACEUTICALS INC., priority 1989, dated 1990).

Key:
adenosine A-2 receptors = target: T1, adenosine A-2 receptors (Rattus norvegicus, UniProt P30543); experiment: Test for affinity for brain adenosine A-2 receptors ([3H]NECA competition, striatal membranes); type: binding; details: rat brain striatum membranes, [3H]NECA 94 nM, 25°C, 60 minutes; read-out: A-2 Receptor Ki
T1 construct: from tissue; host or cells: rat brain striatum membranes (young male C-D strain rats, Charles River)
T1 sequence (P30543 whole entry): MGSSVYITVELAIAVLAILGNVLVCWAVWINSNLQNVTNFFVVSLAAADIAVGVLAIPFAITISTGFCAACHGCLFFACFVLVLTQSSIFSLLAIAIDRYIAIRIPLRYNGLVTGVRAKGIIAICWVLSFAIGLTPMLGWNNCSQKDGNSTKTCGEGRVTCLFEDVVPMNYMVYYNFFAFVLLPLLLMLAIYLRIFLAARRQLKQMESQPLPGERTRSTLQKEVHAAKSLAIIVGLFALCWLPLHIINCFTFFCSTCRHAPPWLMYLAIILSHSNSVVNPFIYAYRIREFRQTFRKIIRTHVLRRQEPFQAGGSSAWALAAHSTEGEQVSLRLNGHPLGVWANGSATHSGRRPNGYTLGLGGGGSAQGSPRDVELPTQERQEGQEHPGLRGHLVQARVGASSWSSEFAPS
Method: Membranes for ligand binding are isolated from rat brain striatum. The tissue is homogenized in 20 vol. ice-cold 50 mM Tris-HCl buffer (pH 7.7) using a polytron (setting for 6 to 20 seconds). The homogenate is centrifuged at 50,000 x g for 10 minutes at 4°C. The pellet is again homogenized in a polytron in 20 vol. of buffer, and centrifuged as before. The pellet is finally resuspended in 40 vol. of 50 mM Tris-HCl (pH 7.7) per gram of original wet weight of tissue.
Incubations are carried out at 25°C for 60 minutes. Each tube is filtered through GF/B glass fiber filters using a vacuum. The filters are rinsed two times with 5 ml of the ice-cold buffer. […] The filters are counted by liquid scintillation spectrometry.
Specific binding of [3H]NECA is measured as the excess over blank runs in the presence of 100 µM 2-chloroadenosine. Total membrane-bound radioactivity is about 2.5% of that added to the test tubes. […] Specific binding to membranes is about 50% of the total bound.

adenosine A-1 receptor = target: T2, adenosine A-1 receptor (Rattus norvegicus, UniProt P25099); experiment: biochemical
T2 sequence (P25099 1-326): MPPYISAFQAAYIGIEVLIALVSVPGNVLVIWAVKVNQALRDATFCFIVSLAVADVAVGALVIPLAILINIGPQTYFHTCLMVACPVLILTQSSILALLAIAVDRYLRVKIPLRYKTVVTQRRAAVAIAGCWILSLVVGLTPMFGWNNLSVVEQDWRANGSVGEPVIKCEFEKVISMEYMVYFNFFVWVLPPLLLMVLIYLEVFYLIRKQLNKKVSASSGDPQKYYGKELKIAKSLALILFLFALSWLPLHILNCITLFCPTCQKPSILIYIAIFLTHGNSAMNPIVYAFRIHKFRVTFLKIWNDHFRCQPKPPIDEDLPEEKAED

A-2 receptors = details: brain slice assay; cited from earlier work
adenosine receptors = details: in vivo; cited from earlier work

Row | Ki (adenosine A-2 receptors) [µM] | Ki (adenosine A-1 receptor) [µM] | Compound | Ki (A-2 receptors) [µM] | potency in antagonizing the effects of adenosine analogs on heart rate versus blood pressure (adenosine receptors)
1 | 25 | 1.9 | C1=Nc2c(cnn2-c2ccccc2)C2=N[C@H](Cc3ccccc3)CN12 [Compound 3, (R)-2,7-dihydro-7-phenyl-2-(phenylmethyl)-3H-imidazo[1,2-c]pyrazolo[4,3-e]pyrimidine] |  | 
2 | > 199 | 10 | C1=Nc2c(cnn2-c2ccccc2)C2=N[C@@H](Cc3ccccc3)CN12 [Compound 4, (S)-2,7-dihydro-7-phenyl-2-(phenylmethyl)-3H-imidazo[1,2-c]pyrazolo[4,3-e]pyrimidine] |  | 
3 | > 199 | 44.6 | C1=Nc2c(ncn2-c2ccccc2)C2=N[C@@H](Cc3ccccc3)CN12 [Compound 5, (S)-7,8-dihydro-3-phenyl-8-(phenylmethyl)-3H-diimidazo[1,2-c:4',5'-e]pyrimidine] |  | 
4 | 100 | 8.4 | C1=Nc2c(ncn2-c2ccccc2)C2=N[C@H](Cc3ccccc3)CN12 [Compound 6, (R)-7,8-dihydro-3-phenyl-8-(phenylmethyl)-3H-diimidazo[1,2-c:4',5'-e]pyrimidine] |  | 
5 | > 199 | 199 | C1=Nc2nc[nH]c2C2=N[C@H](Cc3ccccc3)CN12 [Compound 9, (R)-7,8-dihydro-8-(phenylmethyl)-1H-diimidazo[1,2-c:4',5'-e]pyrimidine] |  | 
6 | > 199 | 199 | C1=Nc2nc[nH]c2C2=N[C@@H](Cc3ccccc3)CN12 [Compound 10, (S)-7,8-dihydro-8-(phenylmethyl)-1H-diimidazo[1,2-c:4',5'-e]pyrimidine] |  | 

The remaining lines, values behind:

Row | Compound | Ki (adenosine A-2 receptors) [µM] | Ki (adenosine A-1 receptor) [µM] | Ki (A-2 receptors) [µM] | potency in antagonizing the effects of adenosine analogs on heart rate versus blood pressure (adenosine receptors)
7 | CCCOC1=Nc2c(cnn2-c2ccccc2)C2=N[C@H](Cc3ccccc3)CN12 [Compound 1, (R)-2,7-dihydro-7-phenyl-2-(phenylmethyl)-5-propoxy-3H-imidazo[1,2-c]pyrazolo[4,3-e]pyrimidine] | > 6.99 | 1.24 |  | 
8 | CCCOC1=Nc2c(cnn2-c2ccccc2)C2=N[C@@H](Cc3ccccc3)CN12 [Compound 2, (S)-2,7-dihydro-7-phenyl-2-(phenylmethyl)-5-propoxy-3H-imidazo[1,2-c]pyrazolo[4,3-e]pyrimidine] | 0.508 | 2.68 |  | 
9 | CCCOC1=Nc2c(cnn2-c2ccccc2)C2=N[C@H](C)[C@@H](c3ccccc3)N12 [Compound 7, (2R-trans)-2,7-dihydro-2-methyl-3,7-diphenyl-5-propoxy-3H-imidazo[1,2-c]pyrazolo[4,3-e]pyrimidine] | 14.2 | 12.1 |  | 
10 | OC[C@H]1O[C@@H](n2cnc3c2N=CN2C[C@H](Cc4ccccc4)N=C32)[C@H](O)[C@@H]1O [Compound 13, (S)-7,8-dihydro-3-(β-D-ribofuranosyl)-8-(phenylmethyl)-3H-diimidazo[1,2-c:4',5'-e]pyrimidine] | 10.6 | 4.5 |  | 
11 | OC[C@H]1O[C@@H](n2cnc3c2N=CN2C[C@@H](Cc4ccccc4)N=C32)[C@H](O)[C@@H]1O [Compound 14, (R)-7,8-dihydro-3-(β-D-ribofuranosyl)-8-(phenylmethyl)-3H-diimidazo[1,2-c:4',5'-e]pyrimidine] | 46.8 | 65 |  | 
12 | CCCn1c(=O)c2[nH]c(-c3ccc(OCC(=O)NCCN)cc3)nc2n(CCC)c1=O [XAC] |  |  | 0.049 ± 0.017 | much more potent in antagonizing the effects of adenosine analogs on heart rate than on blood pressure
13 | CCCn1c(=O)c2[nH]c(-c3ccc(OCC(=O)O)cc3)nc2n(CCC)c1=O [XCC] |  |  | 0.034 ± 0.013 | 
